Assay: Plasma pharmacokinetics in patients
Details: for concentration at 24 h / concentration at 6 h: Cmin; for concentration at 24 h: 24 hours after the daily dose; for concentration at 6 h: 6 hours after the second dose
[1] = human, plasma, oral, 5 mg, Mean (SD), QD-7D 5 mg, Day 7, steady state, n=4
[2] = human, plasma, oral, 10 mg, Mean (SD), QD-7D 10 mg, Day 7, steady state, n=4
[3] = human, plasma, oral, 20 mg, Mean (SD), QD-7D 20 mg, Day 7, steady state, n=3
[4] = human, plasma, oral, 25 mg, Mean (SD), QID-7D 25 mg, Day 7, Dose 2, steady state, n=6
[5] = human, plasma, oral, 30 mg, Mean (SD), QD-7D 30 mg, Day 7, steady state, n=6
[6] = human, plasma, oral, 35 mg, Mean (SD), QID-7D 35 mg, Day 7, Dose 2, steady state, n=3
[7] = human, plasma, oral, 40 mg, QD-7D 40 mg, Day 7, steady state, individual data, n=1
[8] = human, plasma, oral, 45 mg, Mean (SD), QID-7D 45 mg, Day 7, Dose 2, steady state, n=3
[9] = human, plasma, oral, 55 mg, Mean (SD), QID-7D 55 mg, Day 7, Dose 2, steady state, n=4
[10] = human, plasma, oral, 55 mg, Mean (SD), QID/M-7D 55 mg, Day 7, Dose 2, steady state, n=3
[11] = human, plasma, oral, 60 mg, Mean (SD), QID/M-7D 60 mg, Day 7, Dose 2, steady state, n=6
[12] = human, plasma, oral, 60 mg, Mean (SD), QID/M-14D 60 mg, Day 14, Dose 2, steady state, n=3
[13] = human, plasma, oral, 60 mg, QID/M-21D 60 mg, Day 21, Dose 2, steady state, individual data, n=1
[14] = human, plasma, oral, 70 mg, Mean (SD), QID/M-7D 70 mg, Day 7, Dose 2, steady state, n=3
[15] = human, plasma, oral, 80 mg, Mean (SD), QID/M-7D 80 mg, Day 7, Dose 2, steady state, n=3

Q: Which “MLN8054 concentrations between the second and third doses” value (QID/M-21D 60 mg, days 14 and 21, 1 patient) does the source give for `O=C(O)c1ccc(Nc2ncc3c(n2)-c2ccc(Cl)cc2C(c2c(F)cccc2F)=NC3)cc1` [MLN8054] here?
A: Its value is under 2000 nM.

Q: And the concentration at 7 day (human, in vivo, 60 mg)?
A: Its concentration at 7 day is about 2000 nM.

Q: And the concentration at 14 day (human, in vivo, 60 mg)?
A: Its concentration at 14 day is over 2000 nM.

Q: And the AUC(0-t) (human, plasma, oral, 5 mg, AUC0–24, Mean (SD), QD-7D 5 mg, Day 7, steady state, n=4)?
A: The AUC(0-t) was 6.16 µM·h.

Q: What about the Cmax [1] of the same compound?
A: The Cmax was 521 nM.

Q: What about the concentration at 24 h [1] of the same compound?
A: Its concentration at 24 h is 162 nM.

Q: And the Tmax (human, plasma, oral, 5 mg, Tmax, Mean (SD), QD-7D 5 mg, Day 7, steady state, n=4)?
A: Its Tmax is 1.7 h.

Q: What about the AUC(0-t) (human, plasma, oral, 10 mg, AUC0–24, Mean (SD), QD-7D 10 mg, Day 7, steady state, n=4) of the same compound?
A: The AUC(0-t) was 7.53 µM·h.

Q: And the Cmax [2]?
A: The Cmax was 724 nM.

Q: And the concentration at 24 h [2]?
A: Its concentration at 24 h is 154 nM.

Q: What about the Tmax (human, plasma, oral, 10 mg, Tmax, Mean (SD), QD-7D 10 mg, Day 7, steady state, n=4) of the same compound?
A: The Tmax was 3.8 h.

Q: What about the AUC(0-t) (human, plasma, oral, 20 mg, AUC0–24, Mean (SD), QD-7D 20 mg, Day 7, steady state, n=3) of the same compound?
A: The AUC(0-t) was 13.5 µM·h.

Q: What about the Cmax [3] of the same compound?
A: Its Cmax is 1180 nM.

Q: What about the concentration at 24 h [3] of the same compound?
A: The concentration at 24 h was 240 nM.

Q: And the Tmax (human, plasma, oral, 20 mg, Tmax, Mean (SD), QD-7D 20 mg, Day 7, steady state, n=3)?
A: Its Tmax is 3.3 h.

Q: What about the AUC(0-t) (human, plasma, oral, 25 mg, AUC0–24, Mean (SD), QID-7D 25 mg, Day 7, Dose 2, steady state, n=6) of the same compound?
A: Its AUC(0-t) is 4.85 µM·h.

Q: And the Cmax [4]?
A: The Cmax was 1050 nM.

Q: And the concentration at 6 h [4]?
A: The concentration at 6 h was 720 nM.

Q: And the Tmax (human, plasma, oral, 25 mg, Tmax, Mean (SD), QID-7D 25 mg, Day 7, Dose 2, steady state, n=6)?
A: Its Tmax is 2.5 h.

Q: What about the AUC(0-t) (human, plasma, oral, 30 mg, AUC0–24, Mean (SD), QD-7D 30 mg, Day 7, steady state, n=6) of the same compound?
A: The AUC(0-t) was 28.2 µM·h.

Q: And the Cmax [5]?
A: Its Cmax is 2360 nM.

Q: And the concentration at 24 h [5]?
A: Its concentration at 24 h is 912 nM.

Q: What about the Tmax (human, plasma, oral, 30 mg, Tmax, Mean (SD), QD-7D 30 mg, Day 7, steady state, n=6) of the same compound?
A: The Tmax was 3 h.

Q: What about the AUC(0-t) (human, plasma, oral, 35 mg, AUC0–24, Mean (SD), QID-7D 35 mg, Day 7, Dose 2, steady state, n=3) of the same compound?
A: The AUC(0-t) was 9.71 µM·h.

Q: And the Cmax [6]?
A: Its Cmax is 1970 nM.

Q: What about the concentration at 6 h [6] of the same compound?
A: Its concentration at 6 h is 1460 nM.

Q: And the Tmax (human, plasma, oral, 35 mg, Tmax, Mean (SD), QID-7D 35 mg, Day 7, Dose 2, steady state, n=3)?
A: The Tmax was 1.5 h.

Q: What about the AUC(0-t) (human, plasma, oral, 40 mg, AUC0–24, QD-7D 40 mg, Day 7, steady state, individual data, n=1) of the same compound?
A: The AUC(0-t) was 24.2 µM·h.

Q: And the Cmax [7]?
A: Its Cmax is 3040 nM.

Q: What about the concentration at 24 h [7] of the same compound?
A: The concentration at 24 h was 461 nM.

Q: And the Tmax (human, plasma, oral, 40 mg, Tmax, QD-7D 40 mg, Day 7, steady state, individual data, n=1)?
A: The Tmax was 1 h.

Q: What about the AUC(0-t) (human, plasma, oral, 45 mg, AUC0–24, Mean (SD), QID-7D 45 mg, Day 7, Dose 2, steady state, n=3) of the same compound?
A: The AUC(0-t) was 7.55 µM·h.

Q: What about the Cmax [8] of the same compound?
A: Its Cmax is 1530 nM.

Q: What about the concentration at 6 h [8] of the same compound?
A: Its concentration at 6 h is 1140 nM.

Q: What about the Tmax (human, plasma, oral, 45 mg, Tmax, Mean (SD), QID-7D 45 mg, Day 7, Dose 2, steady state, n=3) of the same compound?
A: Its Tmax is 0.8 h.

Q: What about the AUC(0-t) (human, plasma, oral, 55 mg, AUC0–24, Mean (SD), QID-7D 55 mg, Day 7, Dose 2, steady state, n=4) of the same compound?
A: The AUC(0-t) was 12.5 µM·h.

Q: What about the AUC(0-t) (human, plasma, oral, 55 mg, AUC0–24, Mean (SD), QID/M-7D 55 mg, Day 7, Dose 2, steady state, n=3) of the same compound?
A: The AUC(0-t) was 10.7 µM·h.

Q: What about the Cmax [9] of the same compound?
A: Its Cmax is 2480 nM.

Q: What about the Cmax [10] of the same compound?
A: Its Cmax is 2310 nM.

Q: What about the concentration at 6 h [9] of the same compound?
A: The concentration at 6 h was 1800 nM.

Q: And the concentration at 6 h [10]?
A: The concentration at 6 h was 1310 nM.

Q: What about the Tmax (human, plasma, oral, 55 mg, Tmax, Mean (SD), QID-7D 55 mg, Day 7, Dose 2, steady state, n=4) of the same compound?
A: The Tmax was 1.2 h.

Q: What about the Tmax (human, plasma, oral, 55 mg, Tmax, Mean (SD), QID/M-7D 55 mg, Day 7, Dose 2, steady state, n=3) of the same compound?
A: The Tmax was 1 h.

Q: And the AUC(0-t) (human, plasma, oral, 60 mg, AUC0–24, Mean (SD), QID/M-7D 60 mg, Day 7, Dose 2, steady state, n=6)?
A: The AUC(0-t) was 8.38 µM·h.

Q: What about the AUC(0-t) (human, plasma, oral, 60 mg, AUC0–24, Mean (SD), QID/M-14D 60 mg, Day 14, Dose 2, steady state, n=3) of the same compound?
A: The AUC(0-t) was 13.2 µM·h.

Q: What about the AUC(0-t) (human, plasma, oral, 60 mg, AUC0–24, QID/M-21D 60 mg, Day 21, Dose 2, steady state, individual data, n=1) of the same compound?
A: Its AUC(0-t) is 7.03 µM·h.

Q: And the Cmax [11]?
A: The Cmax was 1950 nM.

Q: What about the Cmax [12] of the same compound?
A: Its Cmax is 2640 nM.

Q: And the Cmax [13]?
A: The Cmax was 1500 nM.

Q: What about the concentration at 6 h [11] of the same compound?
A: Its concentration at 6 h is 1090 nM.

Q: And the concentration at 6 h [12]?
A: Its concentration at 6 h is 2070 nM.

Q: And the concentration at 6 h [13]?
A: The concentration at 6 h was 945 nM.

Q: What about the Tmax (human, plasma, oral, 60 mg, Tmax, Mean (SD), QID/M-7D 60 mg, Day 7, Dose 2, steady state, n=6) of the same compound?
A: Its Tmax is 1.3 h.

Q: And the Tmax (human, plasma, oral, 60 mg, Tmax, Mean (SD), QID/M-14D 60 mg, Day 14, Dose 2, steady state, n=3)?
A: The Tmax was 2.3 h.

Q: And the Tmax (human, plasma, oral, 60 mg, Tmax, QID/M-21D 60 mg, Day 21, Dose 2, steady state, individual data, n=1)?
A: Its Tmax is 1 h.

Q: What about the AUC(0-t) (human, plasma, oral, 70 mg, AUC0–24, Mean (SD), QID/M-7D 70 mg, Day 7, Dose 2, steady state, n=3) of the same compound?
A: Its AUC(0-t) is 15.2 µM·h.

Q: What about the Cmax [14] of the same compound?
A: Its Cmax is 3280 nM.

Q: What about the concentration at 6 h [14] of the same compound?
A: The concentration at 6 h was 1950 nM.

Q: What about the Tmax (human, plasma, oral, 70 mg, Tmax, Mean (SD), QID/M-7D 70 mg, Day 7, Dose 2, steady state, n=3) of the same compound?
A: The Tmax was 1.5 h.

Q: And the concentration at 7 days (human, plasma, oral, 70 mg, mean plasma MLN8054 concentration maintained over the course of treatment, QID/M-7D 70 mg cohort)?
A: Its concentration at 7 days is 2000 nM.

Q: What about the AUC(0-t) (human, plasma, oral, 80 mg, AUC0–24, Mean (SD), QID/M-7D 80 mg, Day 7, Dose 2, steady state, n=3) of the same compound?
A: The AUC(0-t) was 10.1 µM·h.

Q: And the Cmax [15]?
A: The Cmax was 2130 nM.

Q: What about the concentration at 6 h [15] of the same compound?
A: Its concentration at 6 h is 1670 nM.

Q: What about the Tmax (human, plasma, oral, 80 mg, Tmax, Mean (SD), QID/M-7D 80 mg, Day 7, Dose 2, steady state, n=3) of the same compound?
A: Its Tmax is 1 h.

Q: What about the half-life (human, plasma, po) of the same compound?
A: The half-life was 30 to 40 h.

Q: And the Tmax (human, plasma, po, Tmax (range across cohorts), patients, across cohorts)?
A: Its Tmax is 1 to 4 h.

Q: And the “patients with trough MLN8054 concentrations >2000 nM” value (of the 48 patients with sufficient data to estimate pharmacokinetic parameters)?
A: Its value is 7 patients.
